Measured values taken from PMC11571207, “Stereorandomized Oncocins with Preserved Ribosome Binding and Antibacterial Activity” (Journal of Medicinal Chemistry, 2024).
Values after ≈ are worked out from the molar mass of the structure shown. Non-standard residues stand in square brackets, D forms with d. Residues, ends and D or L forms follow the SMILES beside them.

Key:
human red blood cells = assay: Hemolysis assay, minimum hemolytic concentration; conditions: for Haemolysis on hRBC, MHC: 2.5% human red blood cells (final) in 10 mM phosphate, 150 mM NaCl, pH 7.4, 25 °C, 4 h, visual inspection; for MHC human red blood cells: supplement CSV
P. aeruginosa PAO1 = assay: microbe, parasite or virus in culture; conditions: for MIC P. aeruginosa, 12.5% MHB / MIC P. aeruginosa, Full MHB: P. aeruginosa PAO1, 16–20 h at 37 °C; for MIC P. aeruginosa, 12.5% MHB: 12.5% Müller–Hinton medium; for MIC P. aeruginosa, Full MHB: full Müller–Hinton medium; for MIC P. aeruginosa PAO1: supplement CSV
Text: (§1) We tested antibacterial effects against the Gram-negative bacteria Escherichia coli, Klebsiella pneumoniae, Pseudomonas aeruginosa, and Acinetobacter baumannii and the Gram-positive methicillin-resistant Staphylococcus aureus (MRSA).
(§2) Bacterial growth assay (Figure S1), transmission electron microscopy (Figure S6), serum stability assay (Figure S7), circular dichroism spectral recording (Figures S8 and S9), antimicrobial and hemolysis activity assays (MIC and MHC), and vesicle leakage assay were carried out as described in earlier publications.[43],[44]
(§3) Minimum inhibitory concentration assay
(§4) Antimicrobial activity was assayed against P. aeruginosa PAO1, K. pneumoniae NCTC418, E. coli W3110, A. baumannii ATCC 19606, methicillin-resistant S. aureus COL (MRSA), and for selected peptides on P. aeruginosa PA14 and the polymyxin-B-resistant derivative PA14 2P4, as well as the clinical isolates ZEM-1A and ZEM9A, K. pneumoniae OXA-48, S. aureus Newman, Enterobacter cloacae and Burkholderia cenocepacia. The minimal inhibitory concentration (MIC) was determined by using broth microdilution method. A colo ny of bacteria was picked and grown in Luria-Bertani (LB) medium overnight at 37°C. For E. coli BW25113 sbmA::kan the medium was supplemented with 25 mg/L of kanamycin. The next day, the culture was then regrown in LB medium to log phase (OD600 = 0.6 to 0.8), which lasted approximately 4 h, and diluted to an OD600 of 0.022 in the desired medium. Stock solutions of 1 mg/mL of the samples were prepared in sterilized milliQ water and diluted to the beginning concentration of 64 μg/mL in 300 μL Mueller Hinton (MH)-medium. The diluted samples were added to first well of 96-well microtiter plate (TPP, untreated, Faust Laborbedarf, AG, Schaffhausen) and diluted serially by ½. Finally, 4 μL of the bacterial suspension was inoculated into the sample solutions (150 μL/well) with a final inoculation of about 5∙10^5 CFU/mL. The plates were then incubated at 37°C for 15-18h. For each assay, sterility (broth only) and growth control (broth with bacterial inoculum, without antibiotics) were checked with two columns in the plate. The next day, 15 μL of 3-(4,5-dimethylthiazol-2-yl)-2,5-diphenyltetrazolium bromide (MTT) was added to each well of the plate, such a way that MIC was defined as the lowest concentration of the peptide that inhibited visible growth of the tested

E. coli W3110 = assay: microbe, parasite or virus in culture; conditions: for MIC E. coli, 12.5% MHB / MIC E. coli, Full MHB: E. coli W3110, 16–20 h at 37 °C, broth microdilution; for MIC E. coli, 12.5% MHB: 12.5% Müller–Hinton medium; for MIC E. coli, Full MHB: full Müller–Hinton medium; for MIC E. coli W3110: supplement CSV
Text: as §1, §2, §3, §4

K. pneumoniae NCTC 418 = assay: microbe, parasite or virus in culture; conditions: for MIC K. pneumoniae, 12.5% MHB / MIC K. pneumoniae, Full MHB: K. pneumoniae NCTC 418, 16–20 h at 37 °C; for MIC K. pneumoniae, 12.5% MHB: 12.5% Müller–Hinton medium; for MIC K. pneumoniae, Full MHB: full Müller–Hinton medium; for MIC K. pneumoniae NCTC418: supplement CSV
Text: as §1, §2, §3, §4

A. baumannii ATCC19606 = assay: microbe, parasite or virus in culture; conditions: for MIC A. baumannii, 12.5% MHB / MIC A. baumannii, Full MHB: A. baumannii ATCC19606, 16–20 h at 37 °C; for MIC A. baumannii, 12.5% MHB: 12.5% Müller–Hinton medium; for MIC A. baumannii, Full MHB: full Müller–Hinton medium; for MIC A. baumannii ATCC19606: supplement CSV
Text: as §1, §2, §3, §4

S. aureus COL (MRSA) = assay: microbe, parasite or virus in culture; conditions: for MIC S. aureus, 12.5% MHB / MIC S. aureus, Full MHB: S. aureus COL (MRSA), 16–20 h at 37 °C; for MIC S. aureus, 12.5% MHB: 12.5% Müller–Hinton medium; for MIC S. aureus, Full MHB: full Müller–Hinton medium; for MIC S. aureus COL (MRSA): supplement CSV
Text: as §1, §2, §3, §4

SMILES	Haemolysis on hRBC, MHC (human red blood cells)	MHC human red blood cells (human red blood cells)	MIC P. aeruginosa, 12.5% MHB (P. aeruginosa PAO1)	MIC P. aeruginosa, Full MHB (P. aeruginosa PAO1)	MIC P. aeruginosa PAO1 (P. aeruginosa PAO1; 12.5% MH pH 7.4)	MIC P. aeruginosa PAO1 (P. aeruginosa PAO1; full MH pH 7.4)	MIC E. coli, 12.5% MHB (E. coli W3110)	MIC E. coli, Full MHB (E. coli W3110)	MIC E. coli W3110 (E. coli W3110; 12.5% MH pH 7.4)	MIC E. coli W3110 (E. coli W3110; full MH pH 7.4)	MIC K. pneumoniae, 12.5% MHB (K. pneumoniae NCTC 418)	MIC K. pneumoniae, Full MHB (K. pneumoniae NCTC 418)	MIC K. pneumoniae NCTC418 (K. pneumoniae NCTC 418; 12.5% MH pH 7.4)	MIC K. pneumoniae NCTC418 (K. pneumoniae NCTC 418; full MH pH 7.4)	MIC A. baumannii, 12.5% MHB (A. baumannii ATCC19606)	MIC A. baumannii, Full MHB (A. baumannii ATCC19606)	MIC A. baumannii ATCC19606 (A. baumannii ATCC19606; 12.5% MH pH 7.4)	MIC A. baumannii ATCC19606 (A. baumannii ATCC19606; full MH pH 7.4)	MIC S. aureus, 12.5% MHB (S. aureus COL (MRSA))	MIC S. aureus, Full MHB (S. aureus COL (MRSA))	further results
CC[C@H](C)[C@H](NC(=O)[C@H](CCCNC(=N)N)NC(=O)[C@H](CCCNC(=N)N)NC(=O)[C@@H]1CCCN1C(=O)[C@@H]1CCCN1C(=O)[C@H](CCCNC(=N)N)NC(=O)[C@@H]1CCCN1C(=O)[C@@H](CCCNC(=N)N)NC(=O)[C@@H]1CCCN1C(=O)[C@H](CC(C)C)NC(=O)[C@H](Cc1ccc(O)cc1)NC(=O)[C@@H]1CCCN1C(=O)[C@@H]1CCCN1C(=O)[C@H](CCCCN)NC(=O)[C@H](CC(=O)O)NC(=O)[C@@H](N)C(C)C)C(=O)N[C@@H](Cc1ccc(O)cc1)C(=O)N[C@@H](CC(N)=O)C(=O)N[C@@H](CCCNC(=N)N)C(N)=O [DR9-Onc] (H-VDKPPYLP[dR]PRPPRRIYNR-NH2)	>1000 µg/mL	>1000 µg/mL	32 µg/mL (≈ 13.4 µM)	> 64 µg/mL	32 µg/mL (≈ 13.4 µM)	>64 µg/mL	4 µg/mL (≈ 1.67 µM)	16 µg/mL (≈ 6.69 µM)	4 µg/mL (≈ 1.67 µM)	16 µg/mL (≈ 6.69 µM)	4 µg/mL (≈ 1.67 µM)	16 µg/mL (≈ 6.69 µM)	4 µg/mL (≈ 1.67 µM)	16 µg/mL (≈ 6.69 µM)	8 µg/mL (≈ 3.35 µM)	> 64 µg/mL	8 µg/mL (≈ 3.35 µM)	>64 µg/mL	>64 / >64 μg/mL	>64 / >64 μg/mL	MIC S. aureus COL (MRSA) (S. aureus COL (MRSA); 12.5% MH pH 7.4): >64 µg/mL; MIC S. aureus COL (MRSA) (S. aureus COL (MRSA); full MH pH 7.4): >64 µg/mL
CC[C@H](C)[C@H](NC(=O)[C@H](CCCNC(=N)N)NC(=O)[C@H](CCCNC(=N)N)NC(=O)[C@@H]1CCCN1C(=O)[C@@H]1CCCN1C(=O)[C@@H](CCCNC(=N)N)NC(=O)[C@@H]1CCCN1C(=O)[C@H](CCCNC(=N)N)NC(=O)[C@@H]1CCCN1C(=O)[C@H](CC(C)C)NC(=O)[C@H](Cc1ccc(O)cc1)NC(=O)[C@@H]1CCCN1C(=O)[C@@H]1CCCN1C(=O)[C@H](CCCCN)NC(=O)[C@H](CC(=O)O)NC(=O)[C@@H](N)C(C)C)C(=O)N[C@@H](Cc1ccc(O)cc1)C(=O)N[C@@H](CC(N)=O)C(=O)N[C@@H](CCCNC(=N)N)C(N)=O [DR11-Onc] (H-VDKPPYLPRP[dR]PPRRIYNR-NH2)	>1000 µg/mL	>1000 µg/mL	16 µg/mL (≈ 6.69 µM)	> 64 µg/mL	16 µg/mL (≈ 6.69 µM)	>64 µg/mL	2 µg/mL (≈ 0.837 µM)	16 µg/mL (≈ 6.69 µM)	2 µg/mL (≈ 0.837 µM)	16 µg/mL (≈ 6.69 µM)	2 µg/mL (≈ 0.837 µM)	16 µg/mL (≈ 6.69 µM)	2 µg/mL (≈ 0.837 µM)	16 µg/mL (≈ 6.69 µM)	16 µg/mL (≈ 6.69 µM)	32 µg/mL (≈ 13.4 µM)	16 µg/mL (≈ 6.69 µM)	32 µg/mL (≈ 13.4 µM)	>64 / >64 μg/mL	>64 / >64 μg/mL	MIC S. aureus COL (MRSA) (S. aureus COL (MRSA); 12.5% MH pH 7.4): >64 µg/mL; MIC S. aureus COL (MRSA) (S. aureus COL (MRSA); full MH pH 7.4): >64 µg/mL
